# Source: patent US10351566B2, “Therapeutic compounds for pain and synthesis thereof” (priority 2015, dated 2019)
# Where two headings read alike, the source gives them in different places.
# What was measured:
# [1] = assay type: in vivo; details: mice
# Method: Fecal excretion of the parent compound was evaluated following oral administration of Formula 1 in mice at a dose of 50 mg/kg and intravenous administration at a dose of 5 mg/kg. Peak concentrations in feces were 150 μg/g and 33 μg/g from oral and intravenous dosing, respectively. These peak concentrations were generally achieved within 1 h post-oral dosing and within 5 min post-intravenous doing. The concentrations remained high (greater than 1 μg/g) even after 8 h post-dosing by both administration routes (FIG. 18).
# [2] = assay type: in vivo, mice
# Method: At 4 days, vehicle-treated animals gained approximately 1% body weight, going from 25.24±0.74 g to 25.50±0.64 g. Formula 1 treated animals went from 25.28±1.04 g to 25.82±1.25 g.
# Animals treated with Formula 1 at a dose of 10 mg/kg IP for a period of 31 days gained […] body weight (changing from 21.44±0.18 g to 25.49±0.46 g). Vehicle treated animals gained […] body weight (changing from 21.45±0.19 g to 23.97±0.62 g; p=0.07), therefore no significant changes were found.
# [3] = Tolerability / repeated dosing safety in mice; assay type: in vivo; details: for Findings: Mice
# Method: The tolerability of Formula 1 was evaluated in mice and rats.
# [4] = assay type: in vitro ADME; details: rat plasma
# Method: (§1) Formula 1 was stable in both mouse and human plasma, with t90 values greater than 4 h, whereas it was unstable in rat plasma, with a t90 of less than 1 h (t90 should be greater than 4 h in order to be considered stable). Most of the efficacy and safety pharmacology was therefore run in mice.
# mouse plasma = assay type: in vitro ADME
# Method: as §1
# human plasma = assay type: in vitro ADME
# Method: as §1
# [5] = test system: CCI-induced neuropathic pain; test: CCI-induced neuropathic pain in the rat, oral; assay type: in vivo; details: CCI rats
# Method: Study plan in brief: SD male rats were operated as described by Bennet and Xie7. On study day 7, the sensitivity of the animals to von Frey was assessed. […] The animals were then dosed with either vehicle, gabapentin or Formula 1. Treatment with Formula 1 was not effective 2 h post-single dose.
smiles,measurement,setting,value
"CC(C)(C)C(=O)O[C@@H]1[C@@H]2[C@H]3C[C@H](C[C@@H]1N3Cc1ccccn1)CN2C(=O)CC(F)(F)F (relative stereo) [Formula 1, (2S*,3S*,3aS*,6R*,7aR*)-1-(pyridin-2-ylmethyl)-4-(3,3,3-trifluoropropanoyl)octahydro-1H-2,6-methanopyrrolo[3,2-b]pyridin-3-yl pivalate]",concentration in feces after 8 h post-dosing,[1]; intravenous 5 mg/kg,greater than 1 μg/g
same,peak concentration in feces,[1]; intravenous 5 mg/kg,33 µg/g
same,time to peak concentration in feces,[1]; intravenous 5 mg/kg,≤ 5 min
same,concentration in feces after 8 h post-dosing,[1]; oral 50 mg/kg,greater than 1 μg/g
same,peak concentration in feces,[1]; oral 50 mg/kg,150 µg/g
same,time to peak concentration in feces,[1]; oral 50 mg/kg,≤ 60 min
same,body weight at end,[2]; 10 mg/kg IP for 31 days,25.49 ± 0.46 g
same,body weight at start,[2]; 10 mg/kg IP for 31 days,21.44 ± 0.18 g
same,body weight gained,[2]; 10 mg/kg IP for 31 days,15.64%
same,body weight at 4 days,[2]; 4-day observation,25.82 ± 1.25 g
same,body weight at start,[2]; 4-day observation,25.28 ± 1.04 g
same,effect on body weight gain,"[2]; naïve mice, dosing for 31 days",did not affect body weight gain
same,Findings,"[3]; IP, 10 mg/kg, 31 days",NPF
same,Findings,"[3]; IP, 30 mg/kg, 5 days",NPF
same,Findings,"[3]; PO, 50 mg/kg, 5 days",NPF
same,Findings,"[3]; SC, 60 mg/kg, 5 days",NPF
same,tolerability,"[3]; mice, 5 days intraperitoneal dosing at 30 mg/kg",well tolerated
same,tolerability,"[3]; mice, 5 days oral dosing at 50 mg/kg",well tolerated
same,tolerability,"[3]; mice, 5 days subcutaneous dosing at 60 mg/kg",well tolerated
same,tolerability,"[3]; mouse, single dose of 100 mg/kg",tolerated
same,t90,[4],less than 1 h
same,t90,mouse plasma,greater than 4 h
same,t90,human plasma,greater than 4 h
same,change of activity on continuous dosing,[5],increase in compound activity
same,withdrawal force (von Frey),[5]; 2 h post-single dose,not effective
same,withdrawal threshold,"[5]; daily oral 50 mg/kg, study day 11, 2 h post-treatment",significant increase in the withdrawal threshold
